{"source": "PubChem BioAssay AID1845203", "about": "(Molecular Pharmacology Branch, DTP, NCI, 2023)", "tested_on": "G-401 tumor spheroids, viability % test/control", "assay": "Anticancer human tumor G-401 cell line growth inhibition;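 as to all read-outs here: spheroids exposed to compound for 7 days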;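 as to viability, T/C: 100% = DMSO vehicle-treated spheroids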", "conditions": "spheroids with HUVEC and MSC; for IC50: curve of first compound; for viability, T/C: stronger effect = lower value", "in_short": "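Complex tumor spheroids combined malignant cells with endothelial cells and mesenchymal stem cells. DNA-damaging drugs and DNA repair inhibitors were tested alone and in combination, at half-log dilutions down from clinical Cmax (top 10 microM if Cmax unknown), 0.25% DMSO final.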", "key": {"[1]": {"conditions": "second compound 0.003 µM, first compound 0.00949 µM"}, "[2]": {"conditions": "second compound 0.003 µM, first compound 0.03 µM"}, "[3]": {"conditions": "second compound 0.003 µM, first compound 0.0949 µM"}, "[4]": {"conditions": "second compound 0.003 µM, first compound 0.3 µM"}, "[5]": {"conditions": "second compound 0.003 µM, first compound 0.949 µM"}, "[6]": {"conditions": "second compound 0.003 µM, first compound 3 µM"}}, "data": [{"smiles": "CNCc1ccc(-c2cc(-c3nc(-c4ccc(S(=O)(=O)C(C)C)cc4)cnc3N)on2)cc1", "note": "+ COc1cc2c(cc1O)CCNC21CSC2c3c(OC(C)=O)c(C)c4c(c3C(COC1=O)N1C(O)C3Cc5cc(C)c(OC)c(O)c5C(C21)N3C)OCO4", "values": [{"measurement": "IC50", "setting": "second compound 30 pM", "result": 1420, "unit": "nM"}, {"measurement": "IC50", "setting": "second compound 94.9 pM", "result": 529, "unit": "nM"}, {"measurement": "IC50", "setting": "second compound 0.0003 µM", "result": 10.3, "unit": "nM"}, {"measurement": "IC50", "setting": "second compound 0.000949 µM", "result": "< 9.49", "unit": "nM"}, {"measurement": "IC50", "setting": "second compound 0.003 µM", "result": "< 9.49", "unit": "nM"}, {"measurement": "viability, T/C", "setting": "second compound 30 pM, first compound 0.00949 µM", "result": 100, "unit": "%"}, {"measurement": "viability, T/C", "setting": "second compound 30 pM, first compound 0.03 µM", "result": 95.5, "unit": "%"}, {"measurement": "viability, T/C", "setting": "second compound 30 pM, first compound 0.0949 µM", "result": 103, "unit": "%"}, {"measurement": "viability, T/C", "setting": "second compound 30 pM, first compound 0.3 µM", "result": 88.7, "unit": "%"}, {"measurement": "viability, T/C", "setting": "second compound 30 pM, first compound 0.949 µM", "result": 58.4, "unit": "%"}, {"measurement": "viability, T/C", "setting": "second compound 30 pM, first compound 3 µM", "result": 35, "unit": "%"}, {"measurement": "viability, T/C", "setting": "second compound 94.9 pM, first compound 0.00949 µM", "result": 94.4, "unit": "%"}, {"measurement": "viability, T/C", "setting": "second compound 94.9 pM, first compound 0.03 µM", "result": 94.8, "unit": "%"}, {"measurement": "viability, T/C", "setting": "second compound 94.9 pM, first compound 0.0949 µM", "result": 89.9, "unit": "%"}, {"measurement": "viability, T/C", "setting": "second compound 94.9 pM, first compound 0.3 µM", "result": 60.5, "unit": "%"}, {"measurement": "viability, T/C", "setting": "second compound 94.9 pM, first compound 0.949 µM", "result": 39.5, "unit": "%"}, {"measurement": "viability, T/C", "setting": "second compound 94.9 pM, first compound 3 µM", "result": 25.8, "unit": "%"}, {"measurement": "viability, T/C", "setting": "second compound 0.0003 µM, first compound 0.00949 µM", "result": 48, "unit": "%"}, {"measurement": "viability, T/C", "setting": "second compound 0.0003 µM, first compound 0.03 µM", "result": 51.4, "unit": "%"}, {"measurement": "viability, T/C", "setting": "second compound 0.0003 µM, first compound 0.0949 µM", "result": 38.2, "unit": "%"}, {"measurement": "viability, T/C", "setting": "second compound 0.0003 µM, first compound 0.3 µM", "result": 25.9, "unit": "%"}, {"measurement": "viability, T/C", "setting": "second compound 0.0003 µM, first compound 0.949 µM", "result": 24.1, "unit": "%"}, {"measurement": "viability, T/C", "setting": "second compound 0.0003 µM, first compound 3 µM", "result": 18.6, "unit": "%"}, {"measurement": "viability, T/C", "setting": "second compound 0.000949 µM, first compound 0.00949 µM", "result": 9.02, "unit": "%"}, {"measurement": "viability, T/C", "setting": "second compound 0.000949 µM, first compound 0.03 µM", "result": 10.5, "unit": "%"}, {"measurement": "viability, T/C", "setting": "second compound 0.000949 µM, first compound 0.0949 µM", "result": 12.2, "unit": "%"}, {"measurement": "viability, T/C", "setting": "second compound 0.000949 µM, first compound 0.3 µM", "result": 18.3, "unit": "%"}, {"measurement": "viability, T/C", "setting": "second compound 0.000949 µM, first compound 0.949 µM", "result": 19.3, "unit": "%"}, {"measurement": "viability, T/C", "setting": "second compound 0.000949 µM, first compound 3 µM", "result": 9.87, "unit": "%"}, {"measurement": "viability, T/C", "setting": "[1]", "result": 0.14, "unit": "%"}, {"measurement": "viability, T/C", "setting": "[2]", "result": 0.14, "unit": "%"}, {"measurement": "viability, T/C", "setting": "[3]", "result": 0.22, "unit": "%"}, {"measurement": "viability, T/C", "setting": "[4]", "result": 0.29, "unit": "%"}, {"measurement": "viability, T/C", "setting": "[5]", "result": 0.89, "unit": "%"}, {"measurement": "viability, T/C", "setting": "[6]", "result": 0.21, "unit": "%"}]}, {"smiles": "Cn1ncnc1[C@H]1c2n[nH]c(=O)c3cc(F)cc(c23)N[C@@H]1c1ccc(F)cc1", "note": "+ CC[C@@]1(O)C(=O)OCc2c1cc1n(c2=O)Cc2cc3c(CN(C)C)c(O)ccc3nc2-1", "values": [{"measurement": "IC50", "setting": "second compound 0.003 µM", "result": "< 9.49", "unit": "nM"}, {"measurement": "IC50", "setting": "second compound 0.00949 µM", "result": "< 9.49", "unit": "nM"}, {"measurement": "IC50", "setting": "second compound 0.03 µM", "result": "< 9.49", "unit": "nM"}, {"measurement": "IC50", "setting": "second compound 0.0949 µM", "result": "< 9.49", "unit": "nM"}, {"measurement": "IC50", "setting": "second compound 0.3 µM", "result": "< 9.49", "unit": "nM"}, {"measurement": "viability, T/C", "setting": "[1]", "result": 30.3, "unit": "%"}, {"measurement": "viability, T/C", "setting": "[2]", "result": 25.3, "unit": "%"}, {"measurement": "viability, T/C", "setting": "[3]", "result": 22.9, "unit": "%"}, {"measurement": "viability, T/C", "setting": "[4]", "result": 14.9, "unit": "%"}, {"measurement": "viability, T/C", "setting": "[5]", "result": 13.6, "unit": "%"}, {"measurement": "viability, T/C", "setting": "[6]", "result": 8.75, "unit": "%"}, {"measurement": "viability, T/C", "setting": "second compound 0.00949 µM, first compound 0.00949 µM", "result": 14.6, "unit": "%"}, {"measurement": "viability, T/C", "setting": "second compound 0.00949 µM, first compound 0.03 µM", "result": 14.9, "unit": "%"}, {"measurement": "viability, T/C", "setting": "second compound 0.00949 µM, first compound 0.0949 µM", "result": 11.5, "unit": "%"}, {"measurement": "viability, T/C", "setting": "second compound 0.00949 µM, first compound 0.3 µM", "result": 10.4, "unit": "%"}, {"measurement": "viability, T/C", "setting": "second compound 0.00949 µM, first compound 0.949 µM", "result": 8.82, "unit": "%"}, {"measurement": "viability, T/C", "setting": "second compound 0.00949 µM, first compound 3 µM", "result": 7.7, "unit": "%"}, {"measurement": "viability, T/C", "setting": "second compound 0.03 µM, first compound 0.00949 µM", "result": 8.82, "unit": "%"}, {"measurement": "viability, T/C", "setting": "second compound 0.03 µM, first compound 0.03 µM", "result": 7.7, "unit": "%"}, {"measurement": "viability, T/C", "setting": "second compound 0.03 µM, first compound 0.0949 µM", "result": 6.78, "unit": "%"}, {"measurement": "viability, T/C", "setting": "second compound 0.03 µM, first compound 0.3 µM", "result": 6.5, "unit": "%"}, {"measurement": "viability, T/C", "setting": "second compound 0.03 µM, first compound 0.949 µM", "result": 6.42, "unit": "%"}, {"measurement": "viability, T/C", "setting": "second compound 0.03 µM, first compound 3 µM", "result": 5.33, "unit": "%"}, {"measurement": "viability, T/C", "setting": "second compound 0.0949 µM, first compound 0.00949 µM", "result": 6.07, "unit": "%"}, {"measurement": "viability, T/C", "setting": "second compound 0.0949 µM, first compound 0.03 µM", "result": 5.84, "unit": "%"}, {"measurement": "viability, T/C", "setting": "second compound 0.0949 µM, first compound 0.0949 µM", "result": 6.01, "unit": "%"}, {"measurement": "viability, T/C", "setting": "second compound 0.0949 µM, first compound 0.3 µM", "result": 5.6, "unit": "%"}, {"measurement": "viability, T/C", "setting": "second compound 0.0949 µM, first compound 0.949 µM", "result": 5.23, "unit": "%"}, {"measurement": "viability, T/C", "setting": "second compound 0.0949 µM, first compound 3 µM", "result": 3.98, "unit": "%"}, {"measurement": "viability, T/C", "setting": "second compound 0.3 µM, first compound 0.00949 µM", "result": 4.4, "unit": "%"}, {"measurement": "viability, T/C", "setting": "second compound 0.3 µM, first compound 0.03 µM", "result": 4.94, "unit": "%"}, {"measurement": "viability, T/C", "setting": "second compound 0.3 µM, first compound 0.0949 µM", "result": 4.58, "unit": "%"}, {"measurement": "viability, T/C", "setting": "second compound 0.3 µM, first compound 0.3 µM", "result": 4.17, "unit": "%"}, {"measurement": "viability, T/C", "setting": "second compound 0.3 µM, first compound 0.949 µM", "result": 3.92, "unit": "%"}, {"measurement": "viability, T/C", "setting": "second compound 0.3 µM, first compound 3 µM", "result": 2.85, "unit": "%"}]}]}
